Data: US20120232127A1, “REGULATION OF NEUROTRANSMITTER RELEASE THROUGH ANION CHANNELS” (KOREA INSTITUTE OF SCIENCE AND TECHNOLOGY, priority 2008, published 2012)
“Also recorded” adds a separate entry of the source.

Columns and labels:
[1] = target: T1, Ca2+-activated anion channels (CAACs) (Mus musculus, UniProt O88870, R255K); experiment: Gramicidin-D perforated patch clamp of TFLLR-induced inward current in cultured astrocytes; format: cell-based; settings: for block of TFLLR-induced current: 100 μM blocker, cultured astrocytes; for block of the current by CAACs: astrocytes
T1 construct: endogenous in cells; host or cells: cultured mouse cortical astrocytes
T1 sequence (O88870 1-551 R255K): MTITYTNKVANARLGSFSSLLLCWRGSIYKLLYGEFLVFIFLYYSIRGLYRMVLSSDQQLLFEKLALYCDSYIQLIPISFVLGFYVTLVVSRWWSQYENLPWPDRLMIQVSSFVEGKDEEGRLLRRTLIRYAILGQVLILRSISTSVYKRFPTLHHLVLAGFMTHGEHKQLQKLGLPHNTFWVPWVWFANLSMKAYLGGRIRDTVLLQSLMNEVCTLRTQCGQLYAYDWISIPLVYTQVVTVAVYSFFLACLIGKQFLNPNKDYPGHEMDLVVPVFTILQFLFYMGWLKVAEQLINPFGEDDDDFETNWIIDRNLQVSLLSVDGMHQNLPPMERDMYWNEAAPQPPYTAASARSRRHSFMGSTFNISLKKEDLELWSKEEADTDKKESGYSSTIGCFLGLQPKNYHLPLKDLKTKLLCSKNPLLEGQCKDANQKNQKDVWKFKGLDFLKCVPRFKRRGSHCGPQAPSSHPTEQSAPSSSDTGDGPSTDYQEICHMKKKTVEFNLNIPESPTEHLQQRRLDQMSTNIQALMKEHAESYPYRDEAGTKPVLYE
Experimental: (§1) The External solution was comprised of (in mM) 150 NaCl, 10 HEPES, 3 KCl, 2 CaCl2, 2 MgCl2, 5.5 glucose, at pH 7.3 (˜320 mOsm). For voltage clamp recordings, the internal solution contained 25 μg/ml gramicidin D and (in mM) 75 Cs2SO4, 10 NaCl, 0.1 CaCl2, and 10 HEPES, at pH 7.1 (˜310 mOsm). For current clamp recordings, the internal solution contained 25 μg/ml gramicidin D and (in mM) 75 K2SO4, 10 KCl, 0.1 CaCl2, and 10 HEPES, at pH 7.1 (˜310 mOsm). Pipette resistances ranged from 5 to 8 MΩ. For perforated patch clamp, it took 20 to 30 min to achieve acceptable perforation, with final series resistances ranging from 15 to 40 MΩ.
(§2) To test if activation of PAR1 by its specific agonist (e.g., TFLLR) causes any change in membrane conductance that might contribute to glutamate release from astrocytes, the whole cell currents and intracellular Ca^2+ responses in cultured astrocytes under gramicidin-D perforated patch configuration were simultaneously recorded (FIG. 1a). This technique minimized dialysis of intracellular ions.

[2] = tested on: glutamate release from cultured astrocytes; experiment: TFLLR-evoked efflux of radiotracer from [3H]-glutamate-loaded cultures; format: cell-based
[3] = tested on: Ca2+-activated anion channels (CAACs); experiment: Gramicidin-D perforated patch clamp of TFLLR-induced inward current in cultured astrocytes; format: cell-based, mouse
Experimental: as §1, §2

[4] = tested on: intracellular Ca2+ in cultured astrocytes; experiment: Ca2+ imaging of TFLLR-induced [Ca2+]i transient in cultured astrocytes; format: cell-based, mouse
Experimental: as §1, §2

[5] = target: T2, Ca2+-activated anion channels (CAACs) (Mus musculus, UniProt O88870); experiment: Gramicidin-D perforated patch clamp of TFLLR-induced inward current in cultured astrocytes; format: cell-based; settings: cultured astrocytes, voltage-independent block
T2 construct: endogenous in cells; host or cells: cultured mouse cortical astrocytes
T2 sequence (O88870 1-551 R255K): T1 sequence (O88870 1-551 R255K)
Experimental: as §1, §2

astrocytic CAACs = target: T3, astrocytic CAACs (Mus musculus, UniProt O88870, R255K); experiment: Whole-cell patch clamp, astrocytic CAAC current directly activated by 4.5 μM internal Ca2+; format: cell-based; settings: internal solution with 4.5 μM Ca2+
T3 construct: endogenous in cells; host or cells: cultured mouse cortical astrocytes
T3 sequence (O88870 1-551 R255K): T1 sequence (O88870 1-551 R255K)
Experimental: Patch pipettes which have 3-6MΩ of resistance are filled with the standard intracellular solution. Current voltage curves were established by applying 100- or 200-ms-duration voltage ramps from −100 to +100 mV. […]. Data were acquired by an Axopatch 200A amplifier controlled by Clampex 9.0 via a Digidata 1322A data acquisition system (Molecular Devices). Experiments were conducted at room temperature (20˜24° C.). The standard pipette solution was comprised of (in mM) 146 CsCl, 2 MgCl2, 5 (Ca^2+)-EGTA, 8 HEPES, and 10 sucrose, at pH 7.3, adjusted with CsOH. The concentration of free [Ca^2+]i in the solution was determined (Kuruma, A. & Hartzell, H. C. Bimodal control of a Ca(^2+)-activated Cl(−) channel by difference Ca(^2+) signals. J Gen Physiol 115, 59-80 (2000), which is hereby incorporated by reference for all purposes as if fully set forth herein). The standard extracellular solution was comprised of (in mM) 140 NaCl, 5 KCl, 2 CaCl2, 1 MgCl2, 15 glucose, and 10 HEPES, with pH 7.3 as adjusted using NaOH.
Because CAACs can permeate large anions and could be directly activated by applying internal solutions with known Ca^2+ concentrations, it was tested whether astrocytic CAACs can permeate glutamate by directly applying internal solutions containing 4.5 μM of Ca^2+ at which level CAACs are maximally activated (FIG. 10).

[6] = target: T4, astrocytic CAAC / mBest1 channel (glutamate release) (Mus musculus, UniProt O88870, R255K); experiment: Sniffer patch: astrocyte to GluR1 (L497Y)-expressing HEK293T cell pairs, TFLLR-induced glutamate release; format: cell-based; settings: sniffer patch, cultured astrocytes as glutamate source
T4 construct: endogenous in cells; host or cells: cultured mouse cortical astrocytes
T4 sequence (O88870 1-551 R255K): T1 sequence (O88870 1-551 R255K)
Experimental: The sniffer patch technique, which is used for determining whether or not one is permeable to glutamate, was performed as described in Lee, C. J. et al. Astrocytic control of synaptic NMDA receptors. J Physiol 581, 1057-81 (2007), which is hereby incorporated by reference for all purposes as if fully set forth herein.
2. In experiments using astrocyte-HEK293T cell pairs, the sniffer patch techniques used naïve, scrambled- or mBest1-specific shRNA expressing (with GFP) astrocytes as a glutamate source; and GluR1 (L497Y) expressing HEK293T cells (with DsRED) as a detector. After obtaining gigaohm sealing, GluR1 (L497Y)-expressing cell was firstly ruptured, and then counterpart astrocytes were pressure-applied with 500 uM of TFLLR to evoke an increase in astrocytic intracellular Ca^2+ and resulting glutamate release onto the adjacent HEK293T cells.
GluR1LY-expressing detector cells were patched with the pipette solution pH 7.3 containing 110 mM CsGluconate, 30 mM CsCl, 5 mM HEPES, 4 mM NaCl, 2 mM MgCl2, 5 mM EGTA, and 1 mM CaCl2. The percentage of GluR1 (L497Y)-mediated current to the full activation level was analyzed by dividing the current amplitude of GluR1 (L497Y) current obtained through sniffer patch measurement by that of fully activated GluR1 (L497Y) current in the same cells.
The glutamate release through astrocytic CAACs was examined by using “sniffer-patch” technique and recording real-time glutamate release from cultured astrocytes (FIG. 10a). Using this technique, the present inventors observed that TFLLR-induced astrocytic glutamate release into an adjacent HEK293T cells expressing the non-desensitizing AMPA receptor subunit GluR1 (L497Y) mutant evoked an inward current sensitive to AMPA receptor antagonists, which is interpreted to reflect release of glutamate. The effects of TFLLR on current responses in transfected HEK293T cells was blocked by the treatment of niflumic acid (% block by niflumic acid=66.6±5.7%, FIGS. 10d to 10f), which is consistent with the idea that astrocytic CAAC is permeable to glutamate.

[7] = tested on: evoked EPSPs in hippocampal slices; experiment: Current clamp of evoked EPSPs, Schaffer collateral to CA1 pyramidal neuron synapse in hippocampal slices; settings: 30 μM niflumic acid
Experimental: To assess whether CAAC-dependent glutamate release in astrocytes occurs and enhances synaptic potentials in vivo, a series of current clamp experiments were carried out to directly measure the effects of CAAC-dependent glutamate release on the evoked EPSPs (eEPSPs) of the Schaffer collateral to CA1 pyramidal neuron synapse in hippocampal slices. Under the similar recording conditions as previously described in ‘Lee, C. J. et al. Astrocytic control of synaptic NMDA receptors.

NMDA receptor (NMDAR) = experiment: Voltage clamp of NMDAR-mediated mEPSC decay and NMDAR-mediated current
[8] = tested on: CAACs expressed in Xenopus laevis oocytes; settings: read-out: reported IC50 value for CAACs expressed in Xenopus laevis oocytes; cited from earlier work
[9] = thapsigargin 100 nM, preincubation 5 min
[10] = thapsigargin 100 nM, preincubation 5 min, listed as Thapsigargin
[11] = U73122 2 μM, preincubation 10 min
[12] = BAPTA-AM, 50 μM preincubation for 30 min

O=C(O)c1cc([N+](=O)[O-])ccc1NCCCc1ccccc1 [NPPB, 5-nitro-2(3-phenylpropylamino)-benzoic acid]
block of TFLLR-induced current [1]: blocked

O=C(O)c1ccccc1Nc1cccc(C(F)(F)F)c1 [flufenamic acid]
block of TFLLR-induced current [1]: blocked
inhibition of TFLLR-evoked efflux of radiotracer from [3H]-glutamate-loaded cultures [2]: 57%

CC1(C)[C@@H](OC(=O)CCC(=O)O)CC[C@]2(C)[C@H]3C(=O)C=C4[C@@H]5C[C@@](C)(C(=O)O)CC[C@]5(C)CC[C@@]4(C)[C@]3(C)CC[C@@H]12 [carbenoxolone]
block of the current by CAACs ([1]; 100 μM): did not block

C/C=C(/C)C(=O)O[C@H]1C(C)=C2[C@H]([C@@H]1OC(=O)CCCCCCC)[C@@](C)(OC(C)=O)C[C@H](OC(=O)CCC)[C@@]1(O)[C@H]2OC(=O)[C@@]1(C)O [thapsigargin]
effect on TFLLR-induced inward current [3, 9]: reduced
effect on TFLLR-induced inward current [3, 10]: inhibition
effect on TFLLR-induced [Ca2+]i increase [4, 9]: reduced
effect on TFLLR-induced [Ca2+]i increase [4, 10]: inhibition

O=C(O)c1cccnc1Nc1cccc(C(F)(F)F)c1 [niflumic acid]
IC50 [5]: 9.8 µM
block of TFLLR-induced current [1]: blocked; also recorded: inhibited
block of TFLLR-induced current ([1]; listed as Niflumic acid): blocked
effect on TFLLR-induced increases in intracellular Ca2+ ([4]; 100 μM niflumic acid, n=5): attenuated but did not completely block
block of directly activated non-desensitizing CAAC current (astrocytic CAACs): readily blocked
inhibition of TFLLR-evoked efflux of radiotracer from [3H]-glutamate-loaded cultures [2]: 69%
% block of TFLLR effect on current responses in GluR1 (L497Y)-transfected HEK293T cells [6]: 66.6±5.7%
effect on TFLLR enhancement of eEPSP [7]: blocked; also recorded: not statistically significant
effect on NMDAR-mediated current amplitude (NMDA receptor (NMDAR)): minimally affected
TFLLR-induced prolongation of slow NMDAR-mediated component of mEPSC decay (NMDA receptor (NMDAR); voltage clamp): sensitive
IC50 [8]: 10.1 µM

COc1ccc2c(c1)CC[C@@H]1[C@@H]2CC[C@]2(C)[C@@H](NCCCCCCN3C(=O)C=CC3=O)CC[C@@H]12 [U73122]
effect on TFLLR-induced inward current [3, 11]: reduced; also recorded: inhibition
effect on TFLLR-induced [Ca2+]i increase [4, 11]: reduced; also recorded: inhibition

chlorotoxin
block of the current by CAACs ([1]; 1 μM): did not block

CC(=O)OCOC(=O)CN(CC(=O)OCOC(C)=O)c1ccccc1OCCOc1ccccc1N(CC(=O)OCOC(C)=O)CC(=O)OCOC(C)=O [BAPTA-AM]
effect on TFLLR-induced current [3, 12]: eliminated; also recorded: inhibition
effect on TFLLR-induced [Ca2+]i transient [4, 12]: eliminated; also recorded: inhibition
